Measurements published in patent US20170173011A1, “METHODS OF TREATING A BRUTON'S TYROSINE KINASE DISEASE OR DISORDER” (Celgene Avilomics Research, Inc., priority 2014, published 2017).

Assays:
[1] = system: NZBxNZW F1 mouse SLE model; experiment: urine protein (proteinuria, Albustix strips) in NZBxNZW F1 mouse SLE model; format: in vivo
Procedure: (§1) Compound 1 besylate was tested in the NZBxNZW Fl mouse SLE model. Treatment efficacy of Compound 1 besylate in this model was compared with cyclophosphamide, and a vehicle control. Principal end measures were autoantibodies against double stranded DNA (dsDNA) and protein in the urine.
Urine analysis was initiated when the animals reached 13-14 weeks of age. Initially urine analysis was performed once in two weeks. When the animals reached 18-19 weeks of age, weekly urine analysis for proteinuria levels was performed using Albustix® Reagent strips for Urinalysis (Bayer, Inc). Results were scored on a 0-4 scale using the following criteria:
When the mice reached 19 weeks of age, all animals were evaluated with respect to their proteinuria scores. Based on that evaluation, […] mice were selected and assigned to 6 groups of 10 mice each and one group of 5 mice. The mice were assigned such that the distributions of proteinuria scores among all groups were as uniform as possible.
(§2) Treatment was administered when the mice reached ˜20 weeks of age as follows:
(§3) Proteinuria: Urine was tested once every two weeks when the animals reached ˜13 weeks of age. Urine analysis was preformed midweek at approximately the same time of the day. Weekly urine analysis commenced when the animals reached the age of ˜18 weeks. Proteinuria levels were evaluated using Albustix urine strips. Serum was collected via collection of blood from tail bleeds when animals reached 13 weeks in age, then prior to initiating the treatment and thereafter twice a month.

[2] = system: NZBxNZW F1 mouse SLE model; experiment: anti-dsDNA autoantibody quantitation by ELISA in serum, NZBxNZW F1 mouse SLE model; format: in vivo
Procedure: as §1
Female NZBxNZW FI mice were housed in filter-top Nalgene cages, maintained on a 12-hour light/12-hour dark cycle with a room temperature of 70° F.+/−4° F. Mice were allowed to acclimate to the laboratory environment for approximately 5-7 days to ascertain their continued good health. Irradiated laboratory rodent chow and autoclaved water were supplied ad libitum.
Eighty NZBxNZW F1 female mice ˜12 weeks in age were obtained from Jackson Laboratory and were acclimatized for one week. After the acclimatization period was complete, each mouse that was successfully acclimatized was ear tagged and body weight recorded.
An initial bleed was performed prior to treatment initiation and serum prepared from the blood sampled. Serum samples were stored at −80° C. Following treatment initiation, blood was collected once every two weeks during the in-life phase for subsequent serum preparation.
as §2, §3
Results. Individual autoantibody development in NZBxNZW Fl mice over time is depicted in FIG. 1A. Serum samples were collected from vehicle treated mice at the times indicated and an anti-dsDNA quantitation by ELISA performed. During the course of measurement from 18 weeks of age to 36 weeks of age, six (6) out of ten (10) mice developed autoantibodies against dsDNA greater than 400 KU/ml during the course of disease development and eight out of ten developed dsDNA antibodies greater than 200 kU/ml.

NZBxNZW F1 mice = details: literature; cited from earlier work
B6.sle1 mouse SLE model = details: literature (Hutcheson et al.); reduced anti histone, anti ssDNA, kidney lymphocytes and renal damage; cited from earlier work

In the case of `C=CC(=O)Nc1cccc(Nc2nc(Nc3ccc(OCCOC)cc3)ncc2F)c1` [Compound 1 besylate, N-(3-(5-fluoro-2-(4-(2-methoxyethoxy)phenylamino)pyrimidin-4-ylamino)phenyl)acrylamide besylate], the “protein levels measured in the urine relative to vehicle (FIG. 2)” value ([1]; 50 mg/kg BID PO for 12 weeks) is reported as “reduced protein levels”, the “protein levels measured in the urine relative to vehicle (FIG. 2)” value ([1]; 100 mg/kg QD PO for 12 weeks) is reported as “reduced protein levels” and the “urine protein, dose dependence” value ([1]; across dose groups) is reported as “dose-associated trend of reduced urine protein”. The “number of treated mice that developed dsDNA antibodies over 400 kU/ml” value ([2]; 50 mg/kg BID PO for 12 weeks, vehicle: six (6) of ten (10)) was 2 of ten (10) treated mice, the “number of mice with nearly complete suppression of anti-dsDNA development” value ([2]; 50 mg/kg BID PO, of ten treated mice) was 6 mice and the “anti-dsDNA autoantibody development (FIG. 1C)” value ([2]; 50 mg/kg BID PO, weeks 29 through 33) was “reduced anti-dsDNA autoantibody development”. For the same compound, the “number of mice with blunted anti-dsDNA responses at the end of the study” value ([2]; 50 mg/kg BID PO, weeks 35 and 36, of ten treated mice) was 2 mice.

For `CN1CCN(c2ccc(Nc3cc(-c4cccc(-n5ccc6cc(C7CC7)cc(F)c6c5=O)c4CO)cn(C)c3=O)nc2)CC1` [RN486], the “effect on lupus nephritis / SLE in NZBxNZW F1 mice” value (“effect on lupus nephritis / SLE” for short) (NZBxNZW F1 mice) is given as “efficacious”.

For `N#CN1CCCC(n2nc(-c3ccc(Oc4ccc(F)cc4F)cc3)c(C(N)=O)c2N)C1` (centres unmarked) [PF-06250112], the “effect on lupus nephritis / SLE” value (NZBxNZW F1 mice) is given as “efficacious”.

In the case of `C=CC(=O)N1CCC[C@@H](n2nc(-c3ccc(Oc4ccccc4)cc3)c3c(N)ncnc32)C1` [PCI 32765/Ibrutinib], the “efficacy in B6.sle1 mouse SLE model” value (B6.sle1 mouse SLE model) is given as “efficacious”.

In the case of `O=P1(N(CCCl)CCCl)NCCCO1` (centres unmarked) [Cyclophophamide, Cyclophosphamide], the “effect on lupus nephritis / SLE” value (NZBxNZW F1 mice) is given as “inhibit lupus nephritis”.
